Row | melting point [°C] | Compound
1 | 159 to 160 | O=C(O)c1ccccc1Oc1ccc(C(F)(F)F)cc1NS(=O)(=O)c1ccc(F)cc1
2 | 195 to 198 | COc1ccc(C(=O)Nc2ccc(C(C)(C)C#N)cc2)c(Cl)c1OC
3 | 190 to 193 | CNC(=NC#N)NCCCn1cc(C2=C(c3cn(C)c4ccccc34)C(=O)NC2=O)c2ccccc21
4 | 105 to 109 | CC(C)(C)NS(=O)(=O)c1ccc([N+](=O)[O-])cc1
5 | 46 to 48 | COc1ccc(Cl)c2c1CCCC2=O
6 | 62 to 64 | COC(=O)C(C)Oc1ccc(Oc2ccc(Br)cc2F)cc1 (configuration not stated)
7 | 221 to 223 | Nc1ccc(Sc2c(NCC3CC3)cc(C(=O)O)cc2S(N)(=O)=O)cc1
8 | 151 to 152 | CCOc1ccc(S(=O)(=O)N[C@H](CCCN2C(=O)c3ccccc3C2=O)C(=O)O)cc1
9 | 207 | COc1ccncc1-c1ccc(OC2SCC(O)C(O)C2O)cn1 (configuration not stated)
10 | 240 to 241 | Cc1c(NC(=O)c2cc3c(s2)CCCC3)cccc1-c1cn(C)c(=O)c(Br)n1
11 | 156 | CCN(CC)CCN(CCN1CCCCC1)c1ccc(-c2nc3ccc(Cl)cc3[nH]2)cc1
12 | 91 to 92 | COC(=O)CCc1cc2cc(C#N)ccc2o1
13 | 191 to 193 | COCCc1nc2c(N)nc3c(c2n1CCCCNS(=O)(=O)c1ccc(F)cc1)CCCC3
14 | 61 to 62 | CCCCCC(C)(O)C=CC1CCC(=O)C1CCCCCCC(=O)O (configuration not stated)
15 | 135 to 136 | Cc1ccc(O[C@@H](Cc2ccc(O)cc2)C(=O)N2C(=O)OC[C@@H]2Cc2ccccc2)cc1
16 | 152 | CCCCn1c(=O)c2[nH]c(Cl)nc2n(CCCC)c1=O
17 | 126 to 128 | Clc1ccc(CCOc2ncnc3ncccc23)cc1

Row | melting point [°C] | Compound
18 | > 260 | COc1ccc2c(NC(N)=O)c(C(=O)Nc3ccc(Cl)cc3Cl)oc2c1
19 | 181 to 183 | CC(C)Sc1cc([Si](C)(C)C)oc1C(=O)O
20 | 144 to 145 | CC(C)(C)OC(=O)N(C(=N)N)C(=O)OC(C)(C)C
21 | 165 to 168 | COc1cccc(C(=O)Nc2ccccc2C(c2ccc(O)cc2)c2ccc(O)cc2)c1
22 | 245 to 247 | N#CN1CCC(Nc2ncc3ncnc(Nc4ccc(F)c(Cl)c4)c3n2)CC1
23 | 177 | O=C(O)c1ccccc1Oc1ccc(C(F)(F)F)cc1NS(=O)(=O)c1ccccc1
24 | 159 to 160 | NC(=O)c1cccc(-c2cccc3oc(Cc4cccc(C(F)(F)F)c4)cc23)c1
25 | 81 to 83 | CCCCCCCCCCCCCCCCCCOc1cc(N(CC(=O)OC)CC(=O)OC)cc(S(=O)CC(=O)OC)c1 (configuration not stated)
26 | 193 to 194 | COCCc1nc2c(N)nc3ccccc3c2n1CCCNS(C)(=O)=O
27 | 258 to 259 | O=C1N(c2c(Cl)cccc2Cl)Cc2cnc(NC3CCCCC3)nc2N1c1ccccc1
28 | 142 | CN1CCC(OC2c3ccccc3CCn3cc(-c4ccc(Br)cc4)nc32)CC1 (configuration not stated)
29 | 175 | Nc1ccc([N+](=O)[O-])cc1S(=O)(=O)CCO
30 | 215 to 216 | CCCc1nc(N)nc(N)c1N1CCN(c2ccc(C(=O)OCC)cc2)CC1
31 | 266 | Cc1nc(NC(=O)c2cnn3c(C(F)(F)F)cc(-c4ccc(C(F)(F)F)cc4)nc23)sc1S(=O)(=O)N(C)CCO
32 | 174 to 176 | CN(C)c1ccc(-c2cccc3c2C2(COc4cc5c(cc42)OCO5)C(=O)N3Cc2ccc(C(F)(F)F)o2)cn1 (configuration not stated)
33 | 135 to 136 | Cc1ccc2nc(CN3CCN(c4ccc(Cl)cc4C#N)CC3)cn2c1
34 | 131 to 132 | COCCc1nc2c(N)nc3ccccc3c2n1CCCCCC(=O)N1CCOCC1

Row | Compound | melting point [°C]
35 | OC12C=C(C3NCCc4c3[nH]c3ccccc43)C3CCN(CCCCC=CCC1)CC31CC3C=CCCCCN3C21 (configuration not stated) | 165 to 168
36 | COC(=O)c1cc(C(=O)c2ccc(OC)c3ccccc23)cn1C | 162
37 | CNC(=O)Oc1ccc(CN2CCN(c3ccc(C(C)=O)cc3)CC2)cc1OC | 120 to 123

From a melting point compilation (Tetko et al.; mined from patent text by program, amines drawn as free bases though some values may be those of a salt)
